Where “and” joins values, the source holds several entries; their conditions need not be identical. Equal entries are not always repeated.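 Interpolation was linear, between the two tested concentrations surrounding the appropriate level; five concentrations were tested over 48 hours in 96-well plates. GI50 marks 50% less growth. TGI is the concentration that stops growth completely.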
Tests used:
Test in all cases: inhibition of tumour cell growth, NCI panel, 48 h
[1] = system: A498 renal
[2] = system: ACHN renal
[3] = system: EKVX NSCLC
[4] = system: MCF7 breast
[5] = system: MDA-MB-231 breast
[6] = system: OVCAR-3 ovarian
[7] = system: OVCAR-4 ovarian
[8] = system: SF-295 CNS
[9] = system: SK-MEL-2 melanoma
[10] = system: SK-OV-3 ovarian

COc1cc2c3c(n(CCCNC(C)(C)CO)c(=O)c2cc1OC)-c1cc2c(cc1C3=O)OCO2 showed a GI50 [1] of 17100 nM, a TGI [1] of 40.1 µM and a GI50 [2] of 331 nM. It also gave a TGI [2] of 14.3 µM, a GI50 [3] of 16600 nM and a TGI [3] of 42.7 µM. The GI50 [4] was 294 nM, the TGI [4] was > 50.5 µM and the GI50 [5] was 1230 nM. For the same compound, the TGI [5] was 7 µM, the GI50 [6] was 15100 nM and the TGI [6] was 39.8 µM. The GI50 [7] was 11300 nM, the TGI [7] was 42.1 µM and the GI50 [8] was 214 nM. For the same compound, the TGI [8] was 49.1 µM, the GI50 [9] was 30800 nM and the TGI [9] was > 78.5 µM. The GI50 [10] was 17900 nM and the TGI [10] was > 68.2 µM.

In the case of COC(=O)CC12CC(NC(=O)c3csc([C@@H](C[C@H](C(C)C)N(C)C(=O)[C@@H](NC(=O)[C@H]4CCCCN4C)C(C)C)OC(C)=O)n3)(C1)C2, the GI50 [1] is reported as 3.84 nM and 5.45 nM, the TGI [1] is reported as 0.0224 µM and the GI50 [2] is reported as 26 nM. For the same compound, the TGI [2] was > 33.3 µM, the GI50 [3] was 9.49 nM and 22.9 nM and the TGI [3] was > 33.3 µM. For the same compound, the GI50 [4] was 2.89 nM and 4.05 nM, the TGI [4] was > 33.3 µM and the GI50 [5] was 6.61 nM and 15.2 nM. For the same compound, the TGI [5] was 0.0958 µM and 0.515 µM, the GI50 [6] was 2.9 nM and 3.33 nM and the GI50 [7] was 455 nM and 326 nM. For the same compound, the TGI [7] was > 33.3 µM, the GI50 [8] was 3.27 nM and 9.42 nM and the TGI [8] was > 33.3 µM. For the same compound, the GI50 [9] was 4.41 nM and 9.55 nM, the TGI [9] was > 33.3 µM and the GI50 [10] was 4.39 nM and 10.5 nM. For the same compound, the TGI [10] was > 33.3 µM.

In the case of Nc1nc(N)c2cc(Sc3ccc(Cl)cc3)ccc2n1, the GI50 [1] is reported as 3190 nM, the TGI [1] is reported as 19 µM and the GI50 [2] is reported as 666 nM. For the same compound, the TGI [2] was 16.4 µM, the GI50 [3] was 1660 nM and the TGI [3] was 17.6 µM. The GI50 [4] was 1160 nM, the TGI [4] was 2.79 µM and the GI50 [5] was 1720 nM. The TGI [5] was 4.21 µM, the GI50 [6] was 3500 nM and the TGI [6] was 12.6 µM. The GI50 [7] was 3910 nM, the TGI [7] was 18.9 µM and the GI50 [8] was 630 nM. The TGI [8] was 15.2 µM, the GI50 [9] was 2230 nM and the TGI [9] was 5.53 µM.

For CC[C@@]1(O)C(=O)OCc2c1cc1n(c2=O)Cc2cc3c(OC)cccc3nc2-1, the GI50 [1] was 3.01 nM, the GI50 [2] was 1.75 nM and < 215 nM and the TGI [3] was 8.56 µM. For the same compound, the TGI [4] was > 100 µM, the TGI [5] was > 100 µM and the GI50 [6] was 43.4 nM. The TGI [6] was 1.21 µM, the TGI [7] was 11.9 µM and the GI50 [8] was 1.86 nM. It also gave a TGI [8] of 2.65 µM, a TGI [9] of 2.6 µM and a GI50 [10] of 9.55 nM. For the same compound, the TGI [10] was 4.41 µM.

For CC[n+]1c(/C=C/c2ccc(N3CCCC3)cc2)cccc1/C=C/c1ccc(N2CCCC2)cc1, the GI50 [1] was 344 nM and 239 nM, the TGI [1] was 1.15 µM and 0.828 µM and the GI50 [2] was 180 nM and 240 nM. The TGI [2] was 0.915 µM and 1.14 µM, the GI50 [3] was 83.2 nM and the TGI [3] was 2.08 µM. The GI50 [4] was 213 nM, the TGI [4] was 1.35 µM and the GI50 [5] was 264 nM and 268 nM. For the same compound, the TGI [5] was 1.29 µM and 1.11 µM, the GI50 [6] was 255 nM and the TGI [6] was 0.811 µM. For the same compound, the GI50 [7] was 38.6 nM, the TGI [7] was 1.29 µM and the GI50 [8] was 263 nM. It also gave a TGI [8] of 1.9 µM, a GI50 [9] of 560 nM and a TGI [9] of 2.38 µM. For the same compound, the GI50 [10] was 228 nM and the TGI [10] was 0.897 µM.

In the case of NS(=O)(=O)c1ccc(N=Nc2c(O)[nH]c3cccc(CCc4ccncc4)c23)cc1, the GI50 [1] is reported as > 25000 nM, the TGI [1] is reported as > 25 µM and the GI50 [2] is reported as > 25000 nM. For the same compound, the TGI [2] was > 25 µM, the GI50 [3] was > 25000 nM and the TGI [3] was > 25 µM. The GI50 [4] was > 25000 nM, the TGI [4] was > 25 µM and the GI50 [5] was > 25000 nM. For the same compound, the TGI [5] was > 25 µM, the GI50 [6] was > 25000 nM and the TGI [6] was > 25 µM. For the same compound, the GI50 [7] was > 25000 nM, the TGI [7] was > 25 µM and the GI50 [8] was > 25000 nM. The TGI [8] was > 25 µM, the GI50 [9] was > 25000 nM and the TGI [9] was > 25 µM. For the same compound, the GI50 [10] was > 25000 nM and the TGI [10] was > 25 µM.

COC(=O)Nc1nc2ccc(C(=O)C3CC3)cc2[nH]1 was tested, and the GI50 [1] was 421 nM, the GI50 [2] was 790 nM and the TGI [2] was > 100 µM. The GI50 [3] was 554 nM, the TGI [3] was > 100 µM and the GI50 [4] was 331 nM. The TGI [4] was > 56.1 µM, the GI50 [5] was 1280 nM and the TGI [5] was > 46.1 µM. For the same compound, the GI50 [6] was 207 nM, the TGI [6] was 0.448 µM and the GI50 [7] was 551 nM. The TGI [7] was > 100 µM, the GI50 [8] was 248 nM and the GI50 [9] was 3310 nM. For the same compound, the TGI [9] was > 70.1 µM, the GI50 [10] was 412 nM and the TGI [10] was > 62 µM.

With COc1ccc2c(c1)OC(N)=C(C#N)C2c1ccc(F)c(F)c1 (stereo not given) the GI50 [1] was 231 nM, the TGI [1] was 5.96 µM and the GI50 [2] was 564 nM. The TGI [2] was > 72.8 µM, the GI50 [3] was 751 nM and the TGI [3] was > 100 µM. For the same compound, the GI50 [4] was 333 nM, the TGI [4] was > 67.8 µM and the GI50 [5] was 1330 nM. For the same compound, the TGI [5] was 62.1 µM, the GI50 [6] was 324 nM and the TGI [6] was 3.4 µM. The GI50 [7] was 2330 nM, the TGI [7] was > 100 µM and the GI50 [8] was 393 nM. For the same compound, the TGI [8] was > 52.4 µM, the GI50 [9] was 343 nM and the TGI [9] was > 93.7 µM. For the same compound, the GI50 [10] was 495 nM and the TGI [10] was > 64.1 µM.

For CCOC(=O)c1cc2c(OC)cc(OC)cc2oc1=O, the TGI [1] was > 100 µM, the TGI [2] was > 100 µM and the TGI [3] was > 100 µM. For the same compound, the TGI [4] was > 100 µM, the TGI [5] was > 100 µM and the TGI [6] was > 100 µM. The TGI [7] was > 100 µM, the TGI [8] was > 100 µM and the TGI [9] was > 100 µM.

For O=P1(O)c2ccccc2CSCc2ccccc21, the TGI [1] was > 100 µM, the TGI [2] was > 100 µM and the TGI [3] was > 100 µM. For the same compound, the TGI [4] was > 100 µM, the TGI [5] was > 100 µM and the TGI [6] was > 100 µM. The TGI [7] was > 100 µM, the TGI [8] was > 100 µM and the TGI [9] was > 100 µM. For the same compound, the TGI [10] was > 100 µM.

Compound Nc1n[nH]c2ccc([C@H]3[C@@H]4C5CCC(C5)[C@@H]4c4c(ccc5[nH]ncc45)N3S(=O)(=O)C3CC3)cc12 (stereo not given in full) has a GI50 [1] of 108 nM, a TGI [1] of 0.384 µM and a GI50 [2] of 346 nM. For the same compound, the TGI [2] was 22.5 µM, the GI50 [3] was 264 nM and the TGI [3] was > 45.4 µM. The GI50 [4] was 200 nM, the TGI [4] was > 35.9 µM and the GI50 [5] was 322 nM. For the same compound, the TGI [5] was 12.4 µM, the GI50 [6] was 181 nM and the TGI [6] was 7.16 µM. The GI50 [7] was 2630 nM, the TGI [7] was > 50 µM and the GI50 [8] was 136 nM. For the same compound, the TGI [8] was 1.32 µM, the GI50 [9] was 343 nM and the TGI [9] was 14.5 µM. It also gave a GI50 [10] of 5590 nM and a TGI [10] of 38.8 µM.

With COc1ccc(/C=C/C(=O)c2ccc(B(O)O)cc2)cc1O the GI50 [1] was 5470 nM, the TGI [1] was 21.8 µM and the GI50 [2] was 22100 nM. The TGI [2] was > 84.7 µM, the GI50 [4] was 3480 nM and the TGI [4] was 32.5 µM. The GI50 [5] was 20200 nM, the TGI [5] was > 85 µM and the GI50 [6] was 7270 nM. It also gave a TGI [6] of 20.1 µM, a GI50 [7] of 16700 nM and a TGI [7] of 40.3 µM. For the same compound, the GI50 [8] was 15100 nM, the TGI [8] was 56.5 µM and the GI50 [9] was 26100 nM. For the same compound, the TGI [9] was 64.9 µM, the GI50 [10] was 22200 nM and the TGI [10] was > 89.1 µM.

For CC(=O)N[C@@H](Cc1ccc(OP(=O)(O)O)cc1)C(=O)N[C@H]1CCC(=O)N2CCC[C@@H](C(=O)NCc3cccc4ccccc34)N2C1=O, the GI50 [1] was > 25000 nM, the TGI [1] was > 25 µM and the GI50 [2] was > 25000 nM. The TGI [2] was > 25 µM, the GI50 [4] was > 25000 nM and the TGI [4] was > 25 µM. The GI50 [5] was > 25000 nM, the TGI [5] was > 25 µM and the GI50 [6] was > 25000 nM. The TGI [6] was > 25 µM, the GI50 [7] was > 25000 nM and the TGI [7] was > 25 µM. For the same compound, the GI50 [8] was > 25000 nM, the TGI [8] was > 25 µM and the GI50 [9] was > 25000 nM. For the same compound, the TGI [9] was > 25 µM, the GI50 [10] was > 25000 nM and the TGI [10] was > 25 µM.

Cc1cn2c(/C=N/NC3=NCCN3)c(-c3ccc(Cl)c([N+](=O)[O-])c3)nc2s1 showed a GI50 [1] of 9400 nM, a TGI [1] of 21.4 µM and a GI50 [3] of 3070 nM. The TGI [3] was 10.8 µM, the GI50 [4] was 3800 nM and the TGI [4] was > 50 µM. It also gave a GI50 [5] of 778 nM, a TGI [5] of 1.57 µM and a GI50 [9] of 645 nM. For the same compound, the TGI [9] was 1.81 µM, the GI50 [10] was 1530 nM and the TGI [10] was 3.68 µM.

Source: PubChem BioAssay (NCI)
